# Measurements published in patent US4397853A, “Isoxazole derivatives” (Yoshitomi Pharmaceutical Industries Ltd., priority 1979, dated 1983).
# Read-outs that look alike come from different tables or passages of the source.
# Test system: male dd-mice
# Experiment: anti-apomorphine activity in mice (inhibition of motor activity after apomorphine, animex)
# Format: in vivo
# Conditions: Mus musculus, po, read-out: Anti-apomorphine activity ED50 (dose which inhibited the motor activity by 50% as compared with the control)
# Protocol: Groups of 5 male dd-mice (20-25 g body weight) each were used. Apomorphine hydrochloride (0.5 mg/kg) was subcutaneously administered 60 minutes after oral administration of test compound. Immediately after the apomorphine treatment, motor activity was determined for 20 minutes by animex. For the control groups, 0.5% methylcellulose solution was administered instead of test compound. The ED50, a dose which inhibited the motor activity by 50% as compared with the control, was determined.
# [1] = male dd-mice, p.o., 60 min before apomorphine hydrochloride 0.5 mg/kg s.c., motor activity for 20 min by animex
smiles,measurement,setting,value
"O=c1[nH]c2cc(F)ccc2n1C1CCN(CC2=NOC(c3ccc(F)cc3)C2)CC1 (stereo not shown) [B, 1-[5-(4-Fluorophenyl)-4,5-dihydroisoxazol-3-ylmethyl]-4-(5-fluoro-2-oxo-1-benzimidazolinyl)piperidine]",ED50,[1],2.1 mg/kg
"CN1CCN(C2=Nc3cc(Cl)ccc3Nc3ccccc32)CC1 [Clozapine, reference compound]",ED50,[1],10 mg/kg
"OC1(c2ccc(Cl)cc2)CCN(CC2=NOC(c3ccc(F)cc3)C2)CC1 (stereo not shown) [C, 1-[5-(4-Fluorophenyl)-4,5-dihydroisoxazol-3-ylmethyl]-4-(4-chlorophenyl)-4-hydroxypiperidine]",ED50,,3.4 mg/kg
"O=c1[nH]c2ccccc2n1C1CCN(CC2=NOC(c3ccc(F)cc3)C2)CC1 (stereo not shown) [A, 1-[5-(4-Fluorophenyl)-4,5-dihydroisoxazol-3-ylmethyl]-4-(2-oxo-1-benzimidazolinyl)piperidine]",ED50,[1],1.7 mg/kg
